# Where two headings read alike, the source gives them in different places.
# Columns and labels:
# A3 adenosine receptor [1] = target: T1, A3 adenosine receptor (Rattus norvegicus, UniProt P28647); test: Direct radioligand binding / Scatchard analysis, stably transfected CHO cell membranes; details: radiolabeled ligands, stably transfected CHO membranes
# T1 sequence (P28647 1-320): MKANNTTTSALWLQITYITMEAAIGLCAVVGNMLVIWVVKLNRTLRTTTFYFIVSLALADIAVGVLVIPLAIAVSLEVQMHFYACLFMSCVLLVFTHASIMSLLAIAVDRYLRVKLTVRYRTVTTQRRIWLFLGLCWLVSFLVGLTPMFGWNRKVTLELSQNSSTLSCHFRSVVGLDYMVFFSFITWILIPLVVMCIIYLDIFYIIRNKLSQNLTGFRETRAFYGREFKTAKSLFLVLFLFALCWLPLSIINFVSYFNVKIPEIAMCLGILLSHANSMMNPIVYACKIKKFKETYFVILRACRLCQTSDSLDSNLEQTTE
# Excerpt: FIG. 3 illustrates a Scatchard plot of radioligand binding assays for the A3 adenosine receptor performed with the adenosine radioligand [^125 I]APEA and membrane preparations from stably transfected CHO cells.
# The entire coding region of the A3 cDNA insert from R226 was excised from pGem226 and subcloned into either the HindIII/XbaI sites of an RC-RSV expression vector (Invitrogene, San Diego, Calif.) or the HindIII/SmaI sites of pBC12BI (Cullen, 1987, Meth. Enzym. 152: 684-704). The resulting plasmids were called Rc-RSV226 and pBC226 respectively. For transient expression in COS-7 cells, pBC226 plasmid DNA was prepared in large-scale through one cycle of CsCl gradient ultracentrifugation and 45 μg pBC226 DNA were transfected into each 150mm dish of COS-7 cells according to the method of Chen and Okayama (1987, Molec. Cell Biol. 7: 2745-2752). For stable expression in CHO cells, 1 μg Rc-RSV226 plasmid DNA isolated from a small-scale preparation was purified using the Prep-A-Gene kit (Bio-Rad) and transfected into CHO cells by the CaPO4 method (Graham and van der Eb, 1973, Virol. 52: 456-463). After transfection, cells were cultured in DMEM (COS-7 cells) or F-12 (CHO cells) media supplemented with 10% fetal calf serum in a 3% CO2 atmosphere at 37° C. For stable transfection, selection was performed with neomycin (G418; SOURCE) at a concentration of 700 μg/ml; selection was started 72 hr after transfection and continued for 3 weeks. Cell colonies were screened for expression of the A3 adenosine receptor from the R226 expression vectors described herein by Northern blot hybridization of total cellular RNA with random-primed PCR226 probe (Maniatis et al., ibid.).
# (§1) Cell membranes were prepared as follows. COS-7 cells (transient expressors) were harvested 48 hrs after transfection, whereas CHO cells (stable expressors) were grown to confluence in 150 mm plates. Cells were washed twice with ice-cold HOB buffer [15 mM Tris-HCl (pH 7.4), 5 mM MgCl2, 1 mM EDTA] and scraped off plates with a rubber policeman. Cells were then collected by centrifugation at 1,200 rpm (xx g), resuspended in HOB buffer, transferred to a Dounce homogenizer on ice, and homogenized for 20 sec with a CorTarge homogenizer (Eberbach Inc., Ann Arbor, Mich.) at the #3 speed setting. The homogenate was then centrifuged at 2,000 rpm (xx g) for 10 min at 4° C. The supernatant was saved and the pellet resuspended in HOB buffer and subjected to a second round of homogenation. The second homogenate was centrifuged at 2000 rpm (xx g) for 10 min and the pellet was discarded. Supernatants were pooled and centrifuged at 34,000 rpm (xx g) for 45 min. These crude membrane pellets were resuspended in TEM buffer [50 mM Tris-HCl (pH 7.4), 5 mM MgCl2, 1 mM EDTA]. Adenosine deaminase (Sigma, St Louis, Mo.) was added to the membrane suspensions to a concentration of 2 Units/ml and incubated at 37° C. for 30 min. The membrane suspension was subsequently recentrifuged at 34,000 rpm (xx g) for 45 min. The resulting pellet was resuspended in TEM buffer at a protein concentration of about 1 mg/ml and stored in small aliquots at -70° C. The protein concentration was measured according to the method of Lowry et al. (1954, J. Biol. Chem. 207: 1-XXX) using bovine serum albumin as a standard.
# Radioligand binding assays were carried out in duplicate in 500 μl of a solution containing (at final concentrations) 50 mM Tris-HCl (pH 7.4), 5 mM MgCl2, 1 mM EDTA, 0.025 % ascorbic acid, radioligands, and appropriate drugs. […] ([aH]XAC), [^3 H]-labeled 2-[4-(2-[(4-aminophenyl)methylcarbobylamino]ethylaminocarbonyl)ethyl)phenyl]ethylamino-5'-N-ethylcarboxamidoadenosine ([^3 H]PAPA-APEC), and [^3 H]-labeled [2-(4-(2-carboxyethyl)phenylethyamino)5'-N-ethylcarboxamidoadenosine ([^3 H]CGS21680). Receptor binding was initiated by the addition of membrane preparations in an amount equivalent to 20-100 μg protein, and carried out at 37° C. for 1 hr.
# A3 adenosine receptor [2] = target: T1, A3 adenosine receptor; test: biochemical; type: binding; details: for inhibition at 1000 µM: read-out: inhibition of [125I]APNEA binding; for IC50: 0.5 nM [125I]APNEA; for pharmacological profile of inhibition of [125I]APNEA binding: rank order; for inhibition at 100 µM: read-out: inhibition of specific [125I]APNEA binding
# Procedure: FIGS. 4A and 4B illustrates competitive binding assays using stably transfected CHO cell membrane preparations.
# as §1
# Radioligand binding assays were carried out in duplicate in 500 μl of a solution containing (at final concentrations) 50 mM Tris-HCl (pH 7.4), 5 mM MgCl2, 1 mM EDTA, 0.025 % ascorbic acid, radioligands, and appropriate drugs. […] ([aH]XAC), [^3 H]-labeled 2-[4-(2-[(4-aminophenyl)methylcarbobylamino]ethylaminocarbonyl)ethyl)phenyl]ethylamino-5'-N-ethylcarboxamidoadenosine ([^3 H]PAPA-APEC), and [^3 H]-labeled [2-(4-(2-carboxyethyl)phenylethyamino)5'-N-ethylcarboxamidoadenosine ([^3 H]CGS21680). Receptor binding was initiated by the addition of membrane preparations in an amount equivalent to 20-100 μg protein, and carried out at 37° C. for 1 hr. Nonspecific binding was determined in the presence of 10 μM R-N^6 -phenyl-2-propyladenosine (R-PIA). After incubation, samples were filtered through glass fiber filters (Schleicher and Schuell #32) and washed three times with 4 ml ice-cold 10 mM TrisoHCl (pH 7.4). Radioactivity retained on the filters were counted using a Beckman LS6800 scintillation counter (Beckman Instruments, Palo Alto, Calif.). […] A LIGAND computer program was used for data analysis and curve fitting (Munson & Rodband, 1980, Anal. Biochem. 107: 220-225).
# The A3 receptor was then characterized using competition assays between [^125 I]APNEA A3 receptor binding versus a series of other adenosine receptor ligands. Labeled APNEA was present in these assays at 0.5 nM; unlabled competitors were present at varying concentrations as shown in FIG. 4A.
# A3 adenosine receptor [3] = target: T1, A3 adenosine receptor; test: cell-based; type: cell-based; details: for inhibitory effect of R-PIA and NECA on forskolin-stimulated cAMP production after pertussis toxin pretreatment: 100 ng/ml pertussis toxin, 18 hours; for effect on forskolin-stimulated cAMP: 100 μM ATP or ADP
# Procedure: The concentrations of adenosine agonists used are 100 nM and the concentration of forskolin is 1 μM. Values are obtained from triplicate plates and shown as mean ±S.E.
# The cell were not or pretreated with 100 ng/ml pertussis toxin for 18 hours. The concentration of forskolin and adenosine agonists used are as in FIG. 5.
# It is known that the A 1 adenosine receptor inhibits adenylate cyclase activity and the A2 adenosine receptor stimulates adenylate cyclase respectively (Stiles, ibid.; Williams, ibid.).
# Cells were grown to about 80% confluence in 150 mm dishes, washed twice with Ca^++ and Mg^++ -free PBS buffer and detached from plates with PBS buffer containing 0.02% EDTA. Cells were collected by centrifugation at 800 rpm (xx g) for 10 min at 4° C. and resuspended in an appropriate volume of KRH buffer [140 mM NaCl, 5 mM KCl , 2 mM CaCl2, 1.2 mM MgSO4, 1.2 mM KH2 PO4, 6 mM glucose, 25 mM Hepes-NaOH (pH 7.4)]. The cells were washed once with KRH buffer and resuspended in KRH buffer at a concentration of 10^7 cells/ml. Each of 100 μl aliquots of this cell suspension were added to a glass tube containing 100 μl KRH+200 μM Ro 20-1724 and incubated at 37° C. for 10 min. Prewarmed 200 μl KRH containing 200 μm Ro 20-1724 and test drugs were then added to the cells and mixed. After incubation at 37° C. for 20 min, 400 μl 10.5 mM NaAc (pH 6.2) were added and the glass tubes transferred to a boiling water bath. The incubated cell suspension were boiled for 20 min, and the tubes were then cooled to room temperature and centrifuged at 3000 rpm (xx g) for 15 min.
# For experiments using pertussis toxin pretreatment, aseptic pertussis toxin (Sigma Chemical Co., St. Louis, Mo.) was dissolved in sterile water and added to the medium to a final concentration of 100 ng/ml. Toxin treatment was maintained for approximately 18 hours. The dishes were rinsed once with media immediately prior to the addition of adenosine receptor ligands and processed as described above.
compound,measurement,setting,value
CCNC(=O)[C@H]1O[C@@H](n2cnc3c(N)nc(NCCc4ccc(CCC(=O)NCCNC(=O)Cc5ccc(N)cc5)cc4)nc32)[C@H](O)[C@@H]1O [PAPA-APEC],"specific, high affinity binding to the A3 receptor",A3 adenosine receptor [1],"The only adenosine receptor ligand to show specific, high affinity binding to the A3 receptor was the A1 selective agonist [^125 I]APNEA"
CSc1nc(N)c2ncn([C@@H]3O[C@H](COP(=O)(O)O)[C@@H](O)[C@H]3O)c2n1 [2-methyl-S-AMP],inhibition of [125I]APNEA binding,A3 adenosine receptor [2]; 1 mM,< 20%
NCCc1c[nH]c2ccc(O)cc12 [serotonin],ability to compete with [125I]APNEA for A3 receptor binding,A3 adenosine receptor [2]; 100 μM,failed to compete with labeled APNEA
Nc1ncnc2c1ncn2[C@@H]1O[C@H](COP(=O)(O)OP(=O)(O)CP(=O)(O)O)[C@@H](O)[C@H]1O [AMP-PCP],inhibition at 1000 µM,A3 adenosine receptor [2],< 20%
pertussis toxin,inhibitory effect of R-PIA and NECA on forskolin-stimulated cAMP production after pertussis toxin pretreatment,A3 adenosine receptor [3],almost completely abolished
CC(C)NCC(O)c1ccc(O)c(O)c1 (stereo not shown) [isoproterenol],ability to compete with [125I]APNEA for A3 receptor binding,A3 adenosine receptor [2]; 100 μM,failed to compete with labeled APNEA
C[C@H](Cc1ccccc1)Nc1ncnc2c1ncn2[C@@H]1O[C@H](CO)[C@@H](O)[C@H]1O [R-PIA],IC50,A3 adenosine receptor [2]; Table I,0.063 ± 0.019 µM
same,pharmacological profile of inhibition of [125I]APNEA binding,A3 adenosine receptor [2],R-PIA=NECA>S-PIA>adenosine>ATP=ADP
same,inhibitory effect of R-PIA and NECA on forskolin-stimulated cAMP production after pertussis toxin pretreatment,A3 adenosine receptor [3],almost completely abolished
same,inhibition of forskolin-stimulated cAMP accumulation,"A3 adenosine receptor [3]; 1 μM forskolin, 100 nM agonist",20-50%
same,EC50,A3 adenosine receptor [3]; Table II,0.018 ± 0.0056 µM
CC(C)Cn1c(=O)n(C)c(=O)c2[nH]cnc21 [IBMX],ability to compete with [125I]APNEA for A3 receptor binding,A3 adenosine receptor [2]; 100 μM,none of the methylxanthines tested were capable of competing with labeled APNEA
Nc1ncnc2c1ncn2[C@@H]1O[C@H](COP(=O)(O)OP(=O)(O)NP(=O)(O)O)[C@@H](O)[C@H]1O [App(NH)p],inhibition at 1000 µM,A3 adenosine receptor [2]; 1 mM,< 20%
O=c1ccn([C@@H]2O[C@H](COP(=O)(O)OP(=O)(O)OP(=O)(O)O)[C@@H](O)[C@H]2O)c(=O)[nH]1 [UTP],inhibition at 1000 µM,A3 adenosine receptor [2]; 1 mM,< 20%
Cc1ccc(N(CC2=NCCN2)c2cccc(O)c2)cc1 [phentoamine],ability to compete with [125I]APNEA for A3 receptor binding,A3 adenosine receptor [2]; 100 μM,failed to compete with labeled APNEA
C[N+](C)(C)CCOC(N)=O [carbacol],ability to compete with [125I]APNEA for A3 receptor binding,A3 adenosine receptor [2]; 100 μM,failed to compete with labeled APNEA
Nc1ncnc2c1ncn2[C@@H]1O[C@H](COP(=O)(O)OP(=O)(O)OP(=O)(O)O)[C@@H](O)[C@H]1O [ATP],pharmacological profile of inhibition of [125I]APNEA binding,A3 adenosine receptor [2],R-PIA=NECA>S-PIA>adenosine>ATP=ADP
same,inhibition at 100 µM,A3 adenosine receptor [2],50%
same,effect on forskolin-stimulated cAMP,A3 adenosine receptor [3],had no effect
Nc1nc2c(ncn2[C@@H]2O[C@H](COP(=O)(O)OP(=O)(O)NP(=O)(O)O)[C@@H](O)[C@H]2O)c(=O)[nH]1 [Gpp(NH)p],competition for labeled APNEA binding,"A3 adenosine receptor [2]; Gpp(NH)p, varying concentrations",60-70%
same,IC50,A3 adenosine receptor [2]; Table I and text,1 µM
NCCc1ccc(O)c(O)c1 [dopamine],ability to compete with [125I]APNEA for A3 receptor binding,A3 adenosine receptor [2]; 100 μM,failed to compete with labeled APNEA
Nc1ncnc2c1ncn2[C@@H]1O[C@H](COP(=O)(O)OP(=O)(O)O)[C@@H](O)[C@H]1O [ADP],inhibition at 100 µM,A3 adenosine receptor [2]; 100 μM,25%
same,pharmacological profile of inhibition of [125I]APNEA binding,A3 adenosine receptor [2],R-PIA=NECA>S-PIA>adenosine>ATP=ADP
same,effect on forskolin-stimulated cAMP,A3 adenosine receptor [3],had no effect
C[C@@H](Cc1ccccc1)Nc1ncnc2c1ncn2[C@@H]1O[C@H](CO)[C@@H](O)[C@H]1O [S-PIA],IC50,A3 adenosine receptor [2]; Table I,1.14 ± 0.49 µM
same,pharmacological profile of inhibition of [125I]APNEA binding,A3 adenosine receptor [2],R-PIA=NECA>S-PIA>adenosine>ATP=ADP
Nc1ncnc2c1ncn2[C@H]1C[C@H](O)[C@@H](CO)O1 [2-deoxyadenosine],inhibition at 1000 µM,A3 adenosine receptor [2]; 1 mM,< 20%

# From US5441883A, “A3 adenosine receptor, DNA, and uses” (priority 1993, dated 1995)
